# Laboratory results published in patent US20200239921A1, “CHEMOENZYMATIC SYNTHESIS OF S-NUCLEOSYL AMINO ACIDS (SNA), ANALOGS OF S-ADENOSYL-L-METHIONINE AND S-ADENOSYL-L- HOMOCYSTEINE AND USES THEREOF” (ALBERT EINSTEIN COLLEGE OF MEDICINE, priority 2016, published 2020).
# Columns and labels:
# [1] = biological target: T1, S-adenosyl-L-homocysteine hydrolase from Lupinus luteus (L/SAHH) (Lupinus luteus, UniProt Q9SP37); assay: SAHH-catalysed synthesis of SAH analogs; type: biochemical; conditions: in vitro, reaction displaced toward SAH production
# T1 construct: made in house; host or cells: E. coli
# T1 sequence (Q9SP37 1-485): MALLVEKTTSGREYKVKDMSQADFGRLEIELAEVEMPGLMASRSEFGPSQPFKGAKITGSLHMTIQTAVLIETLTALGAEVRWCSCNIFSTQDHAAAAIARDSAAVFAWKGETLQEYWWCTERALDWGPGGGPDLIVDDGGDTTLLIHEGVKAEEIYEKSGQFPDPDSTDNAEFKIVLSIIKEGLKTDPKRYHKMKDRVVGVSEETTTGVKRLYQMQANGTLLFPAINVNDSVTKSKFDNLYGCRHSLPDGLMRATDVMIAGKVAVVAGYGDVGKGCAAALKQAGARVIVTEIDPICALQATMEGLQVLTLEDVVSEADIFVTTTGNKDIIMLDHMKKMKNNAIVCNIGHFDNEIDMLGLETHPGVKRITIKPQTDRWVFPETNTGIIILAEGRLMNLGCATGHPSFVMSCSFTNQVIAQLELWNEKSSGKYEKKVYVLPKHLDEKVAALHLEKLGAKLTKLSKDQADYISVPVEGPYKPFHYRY
# Excerpt: Alternative chemoenzymatic routes. A few SNA probes are difficult to prepare. To broaden the substrate diversity, the reversible reaction catalyzed by S-adenosyl-L-homocysteine hydrolase from Lupinus luteus (L/SAHH) that is displaced toward SAH production in vitro was used (FIG. 5B). […] This powerful catalyst was a useful tool for production of S-nucleosyl-L-homocysteine and S-nucleosyl-L-cysteine analogs (SNH and SNC, respectively). Unlike SAM analogs, SNH and SNC probes are not substrates for PRMTs, so they are assayed as competitive inhibitors.
# [2] = tested on: MAT from Campylobacter jejuni (CjMAT); assay: CjMAT methionine analog specificity; type: biochemical; conditions: FIG. 6
# Excerpt: (§1) An enzyme array to incorporate a broad spectrum of methionine analogs. To expand the SNA library, the reactivity of several methionine analogs (FIG. 4C, amino-acid tail labelled ‘METHIONINE’) was screened toward MjMAT in the presence of ATP. […] MAT enzymes from Neisseria meningitidis (Nm) and Campylobacter jejuni (Cj) (FIG. 4B) were expressed and purified.
# [3] = tested on: MAT from Neisseria meningitidis (NmMAT); assay: NmMAT methionine analog specificity; type: biochemical; conditions: FIG. 6
# Excerpt: as §1
# PRMT1 = conditions: cited from earlier work
# [4] = biological target: T2, Methanococcus jannaschii MAT (MjMAT) (Methanocaldococcus jannaschii, UniProt Q58605); assay: MjMAT substrate specificity (HPLC); type: biochemical; conditions: in the presence of ATP
# T2 construct: made in house; host or cells: E. coli
# T2 sequence (Q58605 1-406): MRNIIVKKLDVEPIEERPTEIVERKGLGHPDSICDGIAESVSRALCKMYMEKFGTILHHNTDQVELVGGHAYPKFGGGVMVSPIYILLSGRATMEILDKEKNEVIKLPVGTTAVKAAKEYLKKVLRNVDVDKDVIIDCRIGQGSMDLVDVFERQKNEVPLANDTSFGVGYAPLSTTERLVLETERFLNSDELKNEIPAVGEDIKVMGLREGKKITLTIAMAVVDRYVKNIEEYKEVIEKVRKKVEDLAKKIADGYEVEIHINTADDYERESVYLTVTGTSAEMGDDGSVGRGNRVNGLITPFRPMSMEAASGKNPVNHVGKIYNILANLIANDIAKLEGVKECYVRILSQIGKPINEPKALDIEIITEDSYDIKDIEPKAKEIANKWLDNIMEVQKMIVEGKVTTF
# Protocol: Synthetic chemical approaches yield a 1:1 mixture of the two SAM stereoisomers (FIG. 4A, shaded middle frame). The enzymes that catalyze the formation of SAM from ATP and L-methionine in vivo are used to produce SAM analogs (MAT; FIG. 4A, top enzymatic approach). Adenosine phosphorylation is performed by kinases (e.g. adenosine kinase ‘AK’, myokinase ‘MK’ and pyruvate kinase ‘PK’; FIG. 4, top enzymatic approach). MAT proteins are well characterized and several mechanistic and structural biology reports make these enzymes the preferred biocatalyst for rapid access to SAM analogs. Methanococcus jannaschii MAT has been purified (MjMAT; FIG. 4B).
# as §1
# [5] = tested on: AK/MK/PK enzymatic system; assay: AK/MK/PK enzymatic conversion to nucleoside triphosphate; type: biochemical
# methyltransferases = conditions: FIG. 2 first row from table; cited from earlier work
# [6] = biological target: T3, SAM-dependent chlorinase from Salinispora tropica (StSalL) (Salinispora tropica, UniProt A4X3Q0); assay: StSalL methionine analog specificity; type: biochemical; conditions: in the presence of 5′-chloro-5′-deoxy adenosine
# T3 construct: made in house; host or cells: E. coli
# T3 sequence (A4X3Q0 1-283): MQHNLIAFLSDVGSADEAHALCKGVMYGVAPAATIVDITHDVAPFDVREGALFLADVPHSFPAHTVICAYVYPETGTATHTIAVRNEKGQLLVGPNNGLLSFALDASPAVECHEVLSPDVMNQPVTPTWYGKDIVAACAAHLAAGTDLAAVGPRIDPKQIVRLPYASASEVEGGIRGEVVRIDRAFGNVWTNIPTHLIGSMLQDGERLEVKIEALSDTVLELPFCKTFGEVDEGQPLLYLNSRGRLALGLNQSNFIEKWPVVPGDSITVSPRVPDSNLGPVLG
# Protocol: The unique SAM-dependent chlorinase from the marine organism Salinispora tropica (StSalL) is a key enzyme for salinosporamide A biosynthesis. Although the occurrence of high chloride concentration (i.e. 546 mM) in sea water shifts the chemical equilibrium away from SAM synthesis, this reaction is reversible in vitro. StSalL (FIG. 4B) was expressed and purified, and the methionine analog specificity for this enzyme was determined in the presence of 5′-chloro-5′-deoxy adenosine (5′-ClDA; FIG. 6).
smiles,measurement,setting,value
N[C@@H](CCS)C(=O)O [L-homocysteine],utilization as substrate by SAHH,[1],could utilize
"CSCC[C@H](N)CO [M3, (S)-(−)-methioniol]",reactivity of methionine analog toward CjMAT,[2],excellent substrate
"CSCC[C@](C)(N)C(=O)O [M2, α-methyl-methionine]",reactivity of methionine analog toward CjMAT,[2],substrate
same,reactivity of methionine analog toward NmMAT,[3],substrate
N[C@@H](CS)C(=O)O [L-cysteine],utilization as substrate by SAHH,[1],could utilize
NCCCSC[C@H]1O[C@@H](n2cnc3c(N)ncnc32)[C@H](O)[C@@H]1O [S-(5′-adenosyl)-3-thiopropylamine],selectivity for PRMT1 over PRMT6,PRMT1,10 fold
"CSCC[C@@H](N)C(=O)O [M1, D-methionine]",reactivity of methionine analog toward MjMAT,[4],efficiently processed
Nc1ncnc2c1ncn2[C@@H]1O[C@H](CO)[C@@H](O)[C@@H]1F [942′-deoxy-2′-fluoro-β-D-arabinofuranosylladenine],reactivity in AK/MK/PK enzymatic system,[5],low reactivity
"Nc1ncnc2c1ncn2[C@@H]1O[C@H](CSCC[C@H](N)C(=O)O)[C@@H](O)[C@H]1O [SAH, S-adenosyl-L-homocysteine]",inhibition of methyltransferases (in words),methyltransferases,"potent, yet non-specific, inhibitor of methyltransferases"
"CSCC[C@H](N)C(=O)O [M0, L-methionine]",reactivity of methionine analog toward MjMAT,[4],efficiently processed
"CSCCC(O)C(=O)O (centres unmarked) [M4, 2-hydroxy-4-(methylthio) butanoic acid]",reactivity of methionine analog toward MjMAT,[4],reactivity was not observed
same,reactivity of methionine analog toward CjMAT,[2],reactivity was not observed
same,reactivity of methionine analog toward NmMAT,[3],reactivity was not observed
same,reactivity of methionine analog toward StSalL,[6],Reactivity was observed
